Measurements taken from the NIST ThermoML archive (doi:10.1021/acs.jced.5b00242).

Assays:
[1] = refractive index (Na D-line) (dimensionless); xn = mol fraction of the nth substance listed; conditions: 101 kPa, Liquid, Standard Abbe refractometry
[2] = xn = mol fraction of the nth substance listed; conditions: 101 kPa, Liquid; for viscosity: Stabinger Viscometer; for mass density: Vibrating tube method

CCn1cc[n+](C)c1.O=C([O-])[C@@H]1CCCN1 [1-ethyl-3-methyl-1H-imidazolium L-prolinate] + CCn1cc[n+](C)c1.N#C[C-](C#N)C#N
Conditions	mass density, [2] [kg/m3]	refractive index, [1]	viscosity, [2] [mPa·s]
293.15 K, x2 = 0	1145.9	1.52291	1928.4
293.15 K, x2 = 0.2501	1131.7	1.52057	731.38
293.15 K, x2 = 0.5002	1116.4	1.5191	183.74
293.15 K, x2 = 0.7501	1100.6	1.51665	49.1
298.15 K, x2 = 0	1142.8	1.52151	1194.6
298.15 K, x2 = 0.2501	1128.4	1.51913	474.82
298.15 K, x2 = 0.5002	1113.1	1.5176	131.11
298.15 K, x2 = 0.7501	1097.2	1.51508	38.6
303.15 K, x2 = 0	1139.6	1.52009	771.51
303.15 K, x2 = 0.2501	1125.1	1.51769	320.94
303.15 K, x2 = 0.5002	1109.8	1.51611	96.6
303.15 K, x2 = 0.7501	1093.8	1.51349	30.96
308.15 K, x2 = 0	–	1.5187	517.61
308.15 K, x2 = 0.2501	–	1.51622	224.85
308.15 K, x2 = 0.5002	–	1.5146	–
308.15 K, x2 = 0.7501	–	1.5119	–
313.15 K, x2 = 0	–	1.51731	–
313.15 K, x2 = 0.2501	–	1.51477	–
313.15 K, x2 = 0.5002	–	1.51306	–
313.15 K, x2 = 0.7501	–	1.51033	–
318.15 K, x2 = 0	–	1.51591	–
318.15 K, x2 = 0.2501	–	1.51333	–
318.15 K, x2 = 0.5002	–	1.51153	–
318.15 K, x2 = 0.7501	–	1.50875	–
323.15 K, x2 = 0	–	1.51454	–
323.15 K, x2 = 0.2501	–	1.51191	–
323.15 K, x2 = 0.5002	–	1.51006	–
323.15 K, x2 = 0.7501	–	1.50717	–
328.15 K, x2 = 0	–	1.51315	–
328.15 K, x2 = 0.2501	–	1.51046	–
328.15 K, x2 = 0.5002	–	1.50858	–
328.15 K, x2 = 0.7501	–	1.50561	–
333.15 K, x2 = 0	–	1.51177	–
333.15 K, x2 = 0.2501	–	1.50899	–
333.15 K, x2 = 0.5002	–	1.5071	–
333.15 K, x2 = 0.7501	–	1.504	–
338.15 K, x2 = 0	–	1.51035	–
338.15 K, x2 = 0.2501	–	1.50752	–
338.15 K, x2 = 0.5002	–	1.50564	–
338.15 K, x2 = 0.7501	–	1.50249	–
343.15 K, x2 = 0	–	1.50897	–
343.15 K, x2 = 0.2501	–	1.50611	–
343.15 K, x2 = 0.5002	–	1.50412	–
343.15 K, x2 = 0.7501	–	1.50096	–
348.15 K, x2 = 0	–	1.50757	–
348.15 K, x2 = 0.2501	–	1.50461	–
348.15 K, x2 = 0.5002	–	1.50269	–
348.15 K, x2 = 0.7501	–	1.49941	–
353.15 K, x2 = 0	–	1.5062	–
353.15 K, x2 = 0.2501	–	1.50319	–
353.15 K, x2 = 0.5002	–	1.50126	–
353.15 K, x2 = 0.7501	–	1.49791	–
